The subject of series [1] is Hras128 rats. The series is described as follows: BBN-induced urinary bladder tumors in Hras128 rats. The class given is in vivo, rat. As for the experimental part: (§1) In the same manner as in Example 2, 0.05% N-butyl-N-(4-hydroxybutyl)nitrosoamine (BBN) was administered mixed with drinking water to Hras128 rats and the wild type rats for 10 weeks, to induce bladder tumors. The incidences of bladder tumors (papillomas and carcinomas combined) are shown in Table 11, the mutation of the human c-Ha-ras proto-oncogene codons 12 and 61 and endogeneous rat H-ras shown in Table 12.

For series [2], the system named is wild type rats. The series is described as follows: BBN-induced urinary bladder tumors in wild type rats. In kind it is in vivo, rat. The conditions noted are these: Wild female. As for the experimental part: as §1
In series [3] the test system is human c-Ha-ras proto-oncogene (transgene). The series is described as follows: Mutation analysis (RFLP, PCR-SSCP) of the transgene in carcinogen-induced tumors. The text has this:
Single-stranded DNA confirmation polymorphism (SSCP) analysis is able to be performed according to the followings; T. Sekiya. Protein, Nucleic Acid, Enzyme, vol.
Possible mutations in exons 1 to 4 of the human Ha-ras proto-oncogene and exons 1 and 2 of the endogenous gene were examined by PCR-SSCP analysis.
RFLP analysis is able to perform according to the followings; Nagase, et al., Protein, Nucleic Acid, Enzyme, vol.

Series [4] concerns endogenous Ha-ras gene (rat). The series is described as follows: Mutation analysis (PCR-SSCP) of the endogenous Ha-ras gene in carcinogen-induced tumors. The text has this: Single-stranded DNA confirmation polymorphism (SSCP) analysis is able to be performed according to the followings; T. Sekiya. Protein, Nucleic Acid, Enzyme, vol. 41, No. 5, 539, 1996.
Possible mutations in exons 1 to 4 of the human Ha-ras proto-oncogene and exons 1 and 2 of the endogenous gene were examined by PCR-SSCP analysis. Using human or rat specific primers, only two bands appeared on the gals. With common primers (cHras21F and cHras21R) for Ha-ras exon 2 of both man and rats, four bands were detected. Human or rat specific bands were identified by signals from normal DNA of the transgenic and non-transgenic rats. DNA from T24 having a mutation in human Ha-ras of codon 12, GGC to GTC and that from pSK2 having a mutation in the codon 61, CAG to CTG, gave clearly mobility shifted bands in the assays (FIG. 4). However, a GGC to GAC mutation of the transgene enriched by PCR after RFLP analysis as described below, which was frequently observed in tumors induced by MNU in human Ha-ras proto-oncogene transgenic mice, could not be detected by SSCP -PCR analysis. In 44 tumors from Hras128 transgenic rats treated with MNU, mutations were not detected in exons 1 to 4 of the introduced human and endogenous c-Ha-ras genes under any of four SSCP conditions (at 4 or 20° C., with or without 5% glycerol) (Table 1). In contrast, a relatively high frequency (6 of 21 tumors of non-transgenic rats (28.6%) of GGA to GAA mutations in codon 12 of the endogenous Ha-ras gene was detected in mammary carcinomas of non-transgenic using PCR-SSCP analysis followed by direct sequencing (Table 1).

In series [5] the test system is wild type rats (non Tg rats). The series is described as follows: DMBA-induced mammary carcinomas in wild type rats. In kind it is in vivo, rat.
Source text: (§4) Well established mammary carcinogens, such as 7,14-dimethylbenz[a]anthracene (DMBA) and 2-amino-1-methyl-6-phenylimidazo[4,5-]pyridlne (PhIP) were given to the Hras128 rats in the same manner as in previous reports.
(§5) The number of tumor indicates number of lesions per rat and the sizes of the tumors indicates their diameter (mm).
For series [6], the system named is Hras128 rats. The series is described as follows: DMBA-induced mammary carcinomas in Hras128 rats.
Source text: as §4, §5
Series [7] deals with Hras128 rats. As to the kind of experiment: ENU-induced transplacental carcinogenesis in Hras128 (Tg 128) rats. In kind it is in vivo, rat. Conditions: for No. of tumor bearing rat/total No. of rat / Tumor incidence, CNS / Tumor incidence, kidney / Tumor incidence, mammary gland / Tumor incidence, papilloma / Tumor incidence, spleen: transplacental ENU. As for the experimental part: (§2) The effects of transplacental administration of carcinogenic substances were examined in offsprings of females and males of Hras128 rats and wild rats.
(§3) Transplacental administration of ethylnitrosourea (ENU) was performed and incidence of tumors in many organs of the bearing rats are shown in Table 14.

The subject of series [8] is wild rats. As to the kind of experiment: ENU-induced transplacental carcinogenesis in wild rats. The class given is in vivo, rat. The protocol: as §2, §3
For series [9], the system named is Hras128 rats. As to the kind of experiment: PhIP-induced mammary carcinomas in Hras128 rats. The class given is in vivo, rat.
Source text: as §4
The test system of series [10] is wild type rats (non Tg rats). As to the kind of experiment: PhIP-induced mammary carcinomas in wild type rats. Conditions: 4 rats. The class given is in vivo, rat.
Source text: as §4
Series [11] relates to Hras128 rats. The series is described as follows: Effects of d-limonene on MNU-induced mammary carcinogenesis in Hras128 transgenic rats. In kind it is in vivo, rat. The conditions noted are these: 5% d-limonene, 9 rats.
[12] abbreviates: Hras128 female, bladder papillomas and carcinomas combined, 20 rats.
The mark [13] stands for this setting: bladder papillomas and carcinomas combined, 15 rats.
The mark [14] stands for this setting: BBN-induced bladder tumors, Hras128, 27 tumors examined.
The mark [15] stands for this setting: BBN-induced bladder tumors, Wild, 17 tumors examined.
The mark [16] stands for this setting: DMBA-induced mammary carcinomas, Hras128, 20 tumors examined.
Where [17] appears, read: DMBA-induced mammary carcinomas, Hras128, 20 tumors examined, RFLP.
Setting [18] is: DMBA-induced mammary carcinomas, Wild, 7 tumors examined.
[19] abbreviates: Hras128, mammary carcinomas, 14 rats.
The mark [20] stands for this setting: Hras128, mammary carcinomas, 6 rats.
[21] abbreviates: PhIP-induced mammary carcinomas, row printed 'Wild' (Hras128 per text), 20 tumors examined.
The mark [22] stands for this setting: PhIP-induced mammary carcinomas, row printed 'Wild' (Hras128 per text), 20 tumors examined, RFLP.

We go through five compounds from patent US6576811B1, “Transgenic rat with human normal type c-Ha-ras gene” (National Cancer Center Research Institute, priority 1998, dated 2003).

Several values for one entry are separate records, joined by “and”; a condition that tells them apart may be missing. Equal values may be shown once. Marks after values point to notes of the source that are not given here.

Consider `CCCCN(CCCCO)N=O` [BBN, N-butyl-N-(4-hydroxybutyl)nitrosoamine], for which the “Incidence of carcinomas (fraction)” value in series [1] (Hras128 female, bladder) is reported as 11/14; in [2] (bladder) it was 4/13. In addition, the “No. of tumor-bearing rats” value in [1] (Hras128 female, bladder papillomas and carcinomas combined, 0.05% BBN in drinking water 10 weeks, 20 rats) is 19; in series [2] (bladder papillomas and carcinomas combined, 0.05% BBN in drinking water 10 weeks, 15 rats), 15. For the same compound, the “No. of tumor-bearing rats (%)” value was 95% in series [1] (setting [12]) and 100% in [2] (setting [13]). Moreover, the No. of tumors/rat in series [1] (setting [12]) is reported as 13.2 ± 6.8^b; in series [2] (setting [13]), 7.1 ± 5.2. The “Incidence of carcinomas (figure in parentheses)” value in series [1] (Hras128 female, bladder, percent sign not given) is given as 35.3; in series [2] (bladder, percent sign not given), 30.8. For the same compound, the “Sensitivity of the Hras128 rat to BBN carcinogenesis in the bladder” value in [1] (rat, in vivo) is reported as “slightly elevated sensitivity”. In series [3] (setting [14]), the “Transgene codon 12 mutations, %” value was 7.4%. For the same compound, the “Transgene codon 61 mutations, number of tumors” value in series [3] (setting [14]) is on record as 0. For the same compound, the “Transgene mutations total, %” value in [3] (setting [14]) amounted to 7.4%. In addition, in series [3] (setting [14]), the “Transgene mutations total, number of tumors” value was found to be 2. For the same compound, the “Transgene codon 12 mutations, number of tumors” value in series [3] (BBN-induced bladder tumors, Hras128, 27 tumors examined, GGC to GAC) was 2/27 and 2. Further, the “Endogenous (rat) exon 1 mutations, number of tumors” value in series [4] (setting [14]) was 0; in series [4] (BBN-induced bladder tumors, Wild, 17 tumors examined, GGA to GAA), 1/17 and 1. Moreover, the “Endogenous (rat) exon 2 mutations, number of tumors” value (from here on “Endogenous (rat) exon 2 mutations”) in series [4] (setting [14]) and in series [4] (setting [15]) was 0 each time. In addition, in [4] (setting [15]), the “Endogenous (rat) exon 1 mutations, %” value is reported as 5.9%.
Take `Cc1c2ccccc2c(C)c2c1ccc1ccccc12` [DMBA]: the “Tumor size (diameter)” value in [5] is listed as 13.4 ± 8.20 mm. Further, in [5] (12 rats), the “No. of tumor-bearing rats” value was 4, the “No. of tumor-bearing rats (%)” value is given as 33.3% and the No. of tumors/rat came to 0.83 ± 1.75. Also, in series [3] (setting [16]), the “Transgene codon 12 mutations, %” value is recorded as 30%; the “Transgene codon 61 mutations, %” value was 35%; the “Transgene mutations total, %” value was determined as 60%; the “Transgene mutations total, number of tumors” value amounted to 12. In [3] (setting [17]), the “Transgene codon 12 mutations, number of tumors” value was 6/20 and 6; the “Transgene codon 61 mutations, number of tumors” value is 7/20 and 7. In series [4] (setting [16]), the “Endogenous (rat) exon 1 mutations, number of tumors” value was 0 and the “Endogenous (rat) exon 2 mutations” value is 0. In series [4] (setting [18]), the “Endogenous (rat) exon 1 mutations, number of tumors” value is 0 and the “Endogenous (rat) exon 2 mutations” value is 0. For the same compound, the “Tumor size (diameter)” value in series [6] (Hras128, mammary carcinomas) turned out to be 12.6 ± 9.22 mm. Also, in series [6] (setting [19]), the “No. of tumor-bearing rats” value is on record as 13, the “No. of tumor-bearing rats (%)” value was 92.9% and the No. of tumors/rat is on record as 9.39 ± 9.79^b. In addition, in [6] (mammary carcinogenesis), the “Sensitivity of the Hras128 rat to DMBA” value is listed as “very sensitive”.
For `CCN(N=O)C(N)=O` [ENU, ethylnitrosourea], in [7] (Tg 128 Female offspring), the “No. of tumor bearing rat/total No. of rat” value is on record as 6/9; the “Tumor incidence, CNS” value is reported as 3/9; the “Tumor incidence, kidney” value is 2/9; the “Tumor incidence, mammary gland” value is on record as 5/9. For the same compound, in [7] (Tg 128 Female offspring), the “Tumor incidence, papilloma” value is reported as 0 and the “Tumor incidence, spleen” value is listed as 2/9. Besides, in series [7] (Tg 128 Male offspring), the “No. of tumor bearing rat/total No. of rat” value is recorded as 8/15; the “Tumor incidence, CNS” value is on record as 6/15; the “Tumor incidence, kidney” value was 6/15; the “Tumor incidence, mammary gland” value is given as 4/15. Further, in series [7] (Tg 128 Male offspring), the “Tumor incidence, papilloma” value is 3/15 and the “Tumor incidence, spleen” value is 0/15. In series [7] (transgenic rat, within a short period), the “Occurrence of tumors in the central nervous system, kidney, skin, etc. after trans-placental administration” value was “significantly increases”. In series [8] (Wild 128 Female offspring), the “No. of tumor bearing rat/total No. of rat” value is recorded as 0/7; the “Tumor incidence, CNS” value came out at 0; the “Tumor incidence, kidney” value is reported as 0; the “Tumor incidence, mammary gland” value is listed as 0. In series [8] (Wild 128 Female offspring), the “Tumor incidence, papilloma” value amounted to 0 and the “Tumor incidence, spleen” value turned out to be 0. Further, in series [8] (Wild 128 Male offspring), the “No. of tumor bearing rat/total No. of rat” value is reported as 2/6; the “Tumor incidence, CNS” value is reported as 2/6; the “Tumor incidence, kidney” value amounted to 0; the “Tumor incidence, mammary gland” value was determined as 0. In [8] (Wild 128 Male offspring), the “Tumor incidence, papilloma” value came to 0 and the “Tumor incidence, spleen” value came to 0.
Take `Cn1c(N)nc2ncc(-c3ccccc3)cc21` [PhIP]: the Tumor size in series [9] (Hras128, mammary carcinomas) was found to be 9.23 ± 6.21 mm. Further, in series [9] (setting [20]), the “No. of tumor-bearing rats” value is reported as 6, the “No. of tumor-bearing rats (%)” value came out at 100% and the No. of tumors/rat was 9.67 ± 4.76^b. Further, in series [9] (mammary carcinogenesis), the “Sensitivity of the Hras128 rat to PhIP” value is reported as “highly sensitive”. In series [10], the “No. of tumor-bearing rats” value is reported as 0(0), the “No. of tumor-bearing rats (%)” value is listed as 0(0) % and the No. of tumors/rat was 0. In [3] (setting [21]), the “Transgene codon 12 mutations, %” value was found to be 30%; the “Transgene codon 61 mutations, %” value amounted to 23.1%; the “Transgene mutations total, number of tumors” value came out at 8. Further, in series [3] (setting [22]), the “Transgene codon 12 mutations, number of tumors” value is 6/20 and 6; the “Transgene codon 61 mutations, number of tumors” value is 3/20 and 3. Besides, the “Transgene mutations total, figure in parentheses” value in series [3] (PhIP-induced mammary carcinomas, row printed 'Wild' (Hras128 per text), percent sign not given) is 61.5. Further, in series [4] (setting [21]), the “Endogenous (rat) exon 1 mutations, number of tumors” value worked out at 0 and the “Endogenous (rat) exon 2 mutations” value came to 0.
For the compound `C=C(C)[C@H]1CC=C(C)CC1` [d-Limonene, d-limonene], the “Average size of tumors (mm)” value in series [11] (basal diet control 10.7 ± 7.34, P < 0.01) was 8.23 ± 4.88 ^a mm. In [11] (basal diet control 26.4 ± 8.52), this compound came in with a No. of tumors/rat of 19.4 ± 6.71. Moreover, the “Average size of tumors (mm^3)” value in series [11] (basal diet control 637.7 ± 1669, P < 0.01) is recorded as 269.5 ± 735.5 ^a mm^3.
